From US20120263732A1, “CD40 ANTIBODY FORMULATION AND METHODS” (PFIZER INC., priority 2003, published 2012)

Assays:
breast tumor, BT 474 = assay: Established BT 474 breast tumors: antibody and/or cisplatin; type: in vivo, human tumor in SCID-beige mice; details: single IP injection once tumors reached 200 mm^2; antibody 1 mg/kg, cisplatin 2.5 mg/kg; Day 84
Description: The therapeutic effects of an anti-CD40 antibody (21.4.1) in preventing the growth of human breast tumors alone and in the presence of cisplatin was examined.
SCID-beige mice were injected SC with the breast tumor, BT 474. The antibody (1 mg/kg, IP) and/or cisplatin (2.5 mg/kg, IP) were administered as a single injection once tumors reached a size of 200 mm^2. Tumor growth was measured on Day 84 after challenge.

[1] = system: CD40(+) Raji B cell lymphoma; assay: CD40(+) Raji B cell lymphoma growth in SCID-beige mice; type: in vivo, human tumor in SCID-beige mice
Description: SCID-beige mice were injected subcutaneously with the CD40(+) Raji B cell lymphoma (ATCC CCL-86) (SC) followed by a single dose of 21.4.1 (IP) at the time of tumor injection. Some animals were also injected with human T cells and DC. Tumor growth was assessed on Day 21.

B cell lymphoma Daudi = assay: Mortality in systemic Daudi B cell lymphoma model; type: in vivo, human tumor in SCID-beige mice; details: Daudi IV; single IP injection; monitored for 58 days
Description: The ability of an anti-CD40 antibody according to the invention (21.4.1) to delay mortality in a CD40(+) systemic tumor model using a B cell lymphoma was assessed.
SCID-beige mice were injected IV with the B cell lymphoma Daudi (ATCC CCL-213). 21.4.1 was administered as a single injection (IP) at the time of tumor injection. Mortality was monitored for 58 days.

[2] = system: CD40(−) colon carcinoma, Lovo; assay: CD40(−) Lovo colon carcinoma growth in SCID-beige mice; type: in vivo, human tumor in SCID-beige mice; details: immune cells present; compared with K562 results
Description: (§1) The effects of a CD40 antibody (21.4.1) on the growth of CD40(−) tumors (e.g., erythroleukemia and colon carcinoma) were examined. In particular, K562 tumors were chosen to assess the efficacy of 21.4.1 against a CD40(−) low immunogenic (class I and II negative) tumor.
(§2) SCID-beige mice were injected SC with the CD40(−) erythroleukemic tumor, K562 (ATCC CCL-243) alone or in the presence of human peripheral blood T cells and DCs. Animals received a single IP injection of 21.4.1 either at the time of tumor injection or 5 days later using various dose levels.
The amount of 21.4.1 to cause a 50% inhibition of tumor growth was 0.005 mg/kg corresponding to a Cmax serum concentration of 0.05 μg/mL. […] The results were identical when 21.4.1 was administered on Day 0 or Day +5 relative to tumor challenge. The growth of these CD40(−) tumors was not inhibited by 21.4.1 in the absence of immune cells.

[3] = system: human breast tumor, BT 474; assay: BT 474 breast tumor growth with human T cells and DC in SCID-beige mice; type: in vivo; details: in the presence of immune cells; single injection
Excerpt: SCID-beige mice were challenged with the human breast tumor, BT 474 (ATCC HTB-20), SC, together with human peripheral blood T cells and DC. Animals received a single dose of 21.4.1 (IP) at the time of tumor injection.

[4] = system: CD40(−) erythroleukemic tumor, K562; assay: CD40(−) K562 erythroleukemic tumor growth in SCID-beige mice; type: in vivo, human tumor in SCID-beige mice; details: K562 with human T cells and DC; single IP injection; Day 21
Description: as §1, §2

Row | amount to cause a 50% inhibition of tumor growth (IC50) ([1]; Raji in the absence of immune cells, single IP dose, Day 21) | amount to cause a 50% inhibition of tumor growth (IC50) [4] | Compound | tumor growth, single agent (breast tumor, BT 474) | anti-tumor activity against CD40(+) tumors when immune cells were present ([1]; Raji) | mortality induced by systemically administered tumor cell line (B cell lymphoma Daudi) | inhibition of Lovo colon carcinoma growth [2] | growth of BT 474 cells [3]
1 | – | – | 3.1.1: human anti-CD40 antibody; amino acid sequences SEQ ID NOs:1-4; hybridoma deposit PTA-3600 | demonstrated | demonstrated | demonstrated | demonstrated | demonstrated
2 | < 0.01 mg/kg | < 0.01 mg/kg | 3.1.1H-A78T-V88A-V97A/3.1.1L-L4M-L83V: 3.1.1 variant with three heavy chain and two light chain substitutions; SEQ ID NOs:9, 2, 10, 4 | – | – | – | – | –
3 | – | – | N.N.[Cl][Pt][Cl] [cisplatin, cis-diaminedichloroplatinum, reference compound] | prevented tumor growth | – | – | – | –
